Measured values as given in US11707557B2, “Compositions and devices incorporating water-insoluble therapeutic agents and methods of the use thereof” (COOK MEDICAL TECHNOLOGIES LLC, priority 2014, dated 2023).

Assays:
[1] = system: pig bladder tissue; assay: Uptake of docetaxel or paclitaxel into pig bladder tissue from EGCG or tannic acid solutions (Franz cells); type: in vitro ADME; conditions: drug 200 microg/ml in EGCG or tannic acid at 50 mg/ml, urothelial side, 2 hours
Description: Methods: Fresh ex vivo pig bladders were cut into 2 cm diameter pieces and laid on franz diffusions cells. […] The solutions were then made up in tyrodes buffer pH 7.4 and 400 ul was placed on the urothelial side of the tissue for 2 hours. The tissues were then frozen and cryosectioned for radioactivity counting by liquid scintillation methods.

[2] = system: pig bladder tissue; assay: Uptake of paclitaxel or docetaxel into pig bladder tissue from triblock or diblock copolymer-MEPEG pastes; type: in vitro ADME; conditions: EGCG or tannic acid loaded triblock copolymer paste, perivesicular side, 2 hours
Text: Methods: Fresh ex vivo pigs bladders were cut into 2 cm diameter pieces and laid on franz diffusions cells. […] The synthesis of the diblock copolymer is described in example X and is composed of a MEPEG molecule of 2000 molecular weight with polylactic acid at a molecular weight of 1330. The triblock copolymer was synthesized in house and has a composition of 35/35/30 (polycaprolactone, polylactic acid, polyethylene glycol with a total molecular weight of 4600. The triblock was synthesized by heating a mixture of caprolactone (Sigma chemicals) lactic acid (Polysciences) and Polyethylene glycol (Sigma molecular weight 1380) to 120° C. under nitrogen overnight followed by cooling and washing in hexane or cold ethanol. 100 mg of paste was applied to the perivascular side of the bladder tissue and 200 ul of tyrodes buffer pH 7.4 was added. The tissue was incubated for 2 hours at 37° C. and then the diffusion cell was disassembled, the tissue was washed free of remaining paste with excess tyrodes and the tissues were then frozen and cryosectioned for radioactivity counting by liquid scintillation methods.

[3] = system: pig skin
Description: Various gallate-containing drug formulations were prepared and applied to ex vivo pig skin samples. Fresh pig skin was obtained from a local butcher, processed within three hours and then frozen. For experiments, the skin was slowly thawed, excess fat removed from the base, and cut into 1×2 cm squares. These squares were mounted and clamped on Franz diffusion cells, which kept the tissue moist and isolated and exposed a 6 mm diameter of the upper skin surface for the application of a drug loaded formulation. Skin samples were then frozen and later cryosectioned in 50 μm slices. The drug in the slices was extracted and measured by HPLC or radioactive doping methods. A drug depth profile was then established for each drug.
1. Formulations containing a drug and a gallate. The drugs were dissolved in ethanol at various concentrations along with either EGCG or TA (500 mg/mL). Each solution was pipetted into 6×5 mm diameter aluminum cups (approximately 3 mm in height) by filling and allowing the ethanol to evaporate at 50° C. until all the solution was used up (80 mg per cup).
2. Formulations containing a drug, propylene glycol (“PG”) and a gallate. 300 mg of propylene glycol was mixed with 200 mg of EGCG or TA until dissolved. Various amounts of drug were added to this mixture and dissolved. 80 mg of the resulting viscous solution was weighed into 6×5 mm aluminum cups.
3. Control Formulations. Control formulations were prepared using Glaxal base and Plogel. Glaxal base is a cream used by compounding pharmacists to manufacture topical formulations of drugs. Plogel is an alternative used for dermal formulations. […] Drug was added to a known weight of Glaxal or Plogel and levigated to produce a standard drug dispersion. These formulations were prepared the evening before the experiment. For some drugs, radioactive drug (where available) was also added as a doping additive to facilitate quantitation in tissues.
Eutectics: In some cases, gallate containing compounds and drugs were formulated in eutectic mixtures. These included a 60:40 (% w/w) mixture of menthol with ibuprofen. These agents acted as a carrier for retinoic acid, which was then dissolved in this liquid. The 3-drug eutectic/solution was then blended into the CMC/poloxamer emulsion containing EGCG (2.5%). […] The emulsion was stabilized with poloxamer.
Example 29. Pig skin studies. Aluminum cups containing drug formulations were inverted on top of the pig skin in the Franz diffusion cell so that the formulation contents were in contact with the skin. […]
Analysis. […] The amount of drug in each group of skin sections was then determined using HPLC methods, or by radioactivity counting on a liquid scintillation counter. The amount of drug in each group of skin sections was expressed as μg/g or mg/g of tissue.

[4] = Drug release from injectable PG:gallate pastes (60:40) into PBS; type: physicochemical; conditions: 60:40 PG:EGCG or PG:tannic acid, 2% w/w drug, PBS pH 7.4, 37° C.
Description: Methods: 60:40% w/w PG:EGCG or PG:tannic acid was used in these studies. 588 mg of propylene glycol was weighed into a 20 mL glass vials and 392 of EGCG or tannic acid was added followed by vortexing to distribute and dissolve the gallates. The vials were warmed to 60° C. and vortexed until all the contents were in solution. At this time 20 mg of drug was added (2% w/w) and vortexed until in solution. The following drugs were used: paclitaxel, docetaxel, retinoic acid, amphotericin B, and curcumin. 100 mg of each paste was weighed into the base of a 15 mL glass test tube and 10 mL of phosphate buffered saline was added at pH 7.4 and the tubes were incubated at 37° C. for certain times. All 10 mL of the PBS release media was removed and 1 mL analyzed by HPLC for drug content. 10 mL of fresh PBS was then added to all tubes

| SMILES | drug penetration through bladder tissue [1] | penetration into the bladder tissue [2] | drug uptake by pig skin relative to controls [3] | drug release from PG:gallate paste [4] | drug uptake by pig skin [3] |
| --- | --- | --- | --- | --- | --- |
| CC(=O)O[C@@]12CO[C@@H]1C[C@H](O)[C@@]1(C)C(=O)[C@H](O)C3=C(C)[C@@H](OC(=O)[C@H](O)[C@@H](NC(=O)OC(C)(C)C)c4ccccc4)C[C@@](O)([C@@H](OC(=O)c4ccccc4)[C@H]21)C3(C)C [docetaxel] | high levels of drug penetration | allowed for the penetration | higher levels of uptake as compared to the control formulations | relatively controlled release of the drug over 24 hours |  |
| CC(=O)O[C@H]1C(=O)[C@@]2(C)[C@H]([C@H](OC(=O)c3ccccc3)[C@]3(O)C[C@H](OC(=O)[C@H](O)[C@@H](NC(=O)c4ccccc4)c4ccccc4)C(C)=C1C3(C)C)[C@]1(OC(C)=O)CO[C@@H]1C[C@@H]2O [paclitaxel] | high levels of drug penetration | allowed for the penetration |  | relatively controlled release of the drug over 24 hours | low levels of drug uptake |
